Assays:
[1] = biological target: T1, human bradykinin 1 receptor (B1R) (Homo sapiens, UniProt P46663); assay: FLIPR Ca2+ assay, B1R antagonism, human; format: cell-based; details: 10 μM test substance, CHO K1 cells with human B1R gene (hB1R cells), Lys-Des-Arg9-bradykinin at EC80, % inhibition compared with the maximum achievable inhibition; for inhibition at 10 µM: read-out: B1R antagonism, human [10 μM] % inhibition
T1 construct: expressed in transfected cells
T1 sequence (P46663 1-353): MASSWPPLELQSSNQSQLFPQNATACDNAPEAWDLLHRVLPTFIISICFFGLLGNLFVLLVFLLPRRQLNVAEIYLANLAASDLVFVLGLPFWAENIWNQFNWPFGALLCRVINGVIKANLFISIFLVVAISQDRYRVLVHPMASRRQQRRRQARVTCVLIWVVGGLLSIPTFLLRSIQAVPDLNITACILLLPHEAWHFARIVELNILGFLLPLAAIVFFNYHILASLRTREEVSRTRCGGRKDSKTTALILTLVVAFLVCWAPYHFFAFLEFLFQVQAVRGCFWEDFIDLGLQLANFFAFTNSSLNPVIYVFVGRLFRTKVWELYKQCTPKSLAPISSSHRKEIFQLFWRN
Outline: (§1)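 CHO K1 cells stably expressing human or rat B1R, loaded with Fluo-4 and read in FLIPR (ex 488, em 540 nm, peak fluorescence). Test compound 10 μM preincubated 10-20 min, then EC80 agonist added (Lys-Des-Arg9-bradykinin for human, Des-Arg9-bradykinin for rat); % inhibition relative to maximum achievable inhibition.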

[2] = biological target: T2, bradykinin 1 receptor (B1R) of the rat (Rattus norvegicus, UniProt P97583); assay: FLIPR Ca2+ assay, B1R antagonism, rat; format: cell-based; details: CHO K1 cells with rat B1R gene (rB1R cells), Des-Arg9-bradykinin at EC80, % inhibition compared with the maximum achievable inhibition; for B1R antagonism, rat [10 μM] % inhibition: 10 μM test substance; for inhibition at 10 µM: CHO-K1, 10 μM test substance, read-out: B1R antagonism, rat [10 μM] % inhibition
T2 construct: expressed in transfected cells
T2 sequence (P97583 1-337): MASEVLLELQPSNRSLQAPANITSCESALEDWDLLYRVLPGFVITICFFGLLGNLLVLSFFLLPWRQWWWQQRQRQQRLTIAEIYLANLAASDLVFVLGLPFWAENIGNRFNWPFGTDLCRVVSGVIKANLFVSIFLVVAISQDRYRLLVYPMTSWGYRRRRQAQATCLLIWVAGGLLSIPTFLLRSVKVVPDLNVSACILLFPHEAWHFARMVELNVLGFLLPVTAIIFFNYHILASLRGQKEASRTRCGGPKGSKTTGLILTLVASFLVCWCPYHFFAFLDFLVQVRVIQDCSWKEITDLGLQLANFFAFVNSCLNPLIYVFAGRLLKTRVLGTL
Outline: as §1

inhibition at 10 µM [1] [%] | inhibition at 10 µM [2] [%] | Compound | other results
– | – | 3-[[1-[(4-methoxy-2,6-dimethyl-phenyl)sulfonyl]-piperidin-2-yl]-methoxy]-1-[4-pyridin-3-yl-4-(2-pyrrolidin-1-yl-ethoxy)-piperidin-1-yl]-propan-1-one [Example 120] | B1R antagonism, human [10 μM] % inhibition [1]: 100%; B1R antagonism, rat [10 μM] % inhibition [2]: 103%
– | – | COc1cc(C)c(S(=O)(=O)N2CCCCC2COCC(=O)N2CCC(OCCN3CCCC3)(c3cccnc3)CC2)c(C)c1 (centres unmarked) [Example 82, 2-[[1-[(4-methoxy-2,6-dimethyl-phenyl)sulfonyl]-piperidin-2-yl]-methoxy]-1-[4-pyridin-3-yl-4-(2-pyrrolidin-1-yl-ethoxy)-piperidin-1-yl]-ethanone] | B1R antagonism, human [10 μM] % inhibition ([1]; 10 µM): 100%; B1R antagonism, rat [10 μM] % inhibition [2]: 102%
99 | 102 | COc1cc(C)c(S(=O)(=O)N2CCCCC2COCC(=O)N2CCC(OCCCN3CCCC3)(c3cccnc3)CC2)c(C)c1 (centres unmarked) [Example 40, 2-((1-(4-methoxy-2,6-dimethylphenylsulfonyl)piperidin-2-yl)methoxy)-1-(4-(pyridin-3-yl)-4-(3-(pyrrolidin-1-yl)propoxy)piperidin-1-yl)ethanone] | –
98 | 100 | COc1cc(C)c(S(=O)(=O)N(C)CCOCC(=O)N2CCC(OCCN3CCCC3)(c3cccnc3)CC2)c(C)c1 [Example 21, 4-methoxy-N,2,6-trimethyl-N-(2-(2-oxo-2-(4-(pyridin-3-yl)-4-(2-(pyrrolidin-1-yl)ethoxy)piperidin-1-yl)ethoxy)ethyl)benzenesulfonamide] | –
100 | 103 | COc1cc(C)c(S(=O)(=O)N2CCCC[C@H]2COCC(=O)N2CCC(OCCN3CCCC3)(c3ccncc3)CC2)c(C)c1 [Example 57, 2-[[(2S)-1-[(4-methoxy-2,6-dimethyl-phenyl)sulfonyl]-piperidin-2-yl]-methoxy]-1-[4-pyridin-4-yl-4-(2-pyrrolidin-1-yl-ethoxy)-piperidin-1-yl]-ethanone] | –
100 | 99 | COc1cc(C)c(S(=O)(=O)N2CCCCC2CCCC(=O)N2CCC(OCCN3CCCC3)(c3cccc(F)c3)CC2)c(C)c1 (centres unmarked) [Example 89, 1-[4-(3-fluorophenyl)-4-(2-pyrrolidin-1-yl-ethoxy)-piperidin-1-yl]-4-[1-[(4-methoxy-2,6-dimethyl-phenyl)sulfonyl]-piperidin-2-yl]-butan-1-one] | –
– | – | COc1cc(C)c(S(=O)(=O)N2CCCCC2CCCC(=O)N2CCC(OCCN3CCCC3)(c3ccncc3)CC2)c(C)c1 (centres unmarked) [Example 91, 4-[1-[(4-methoxy-2,6-dimethyl-phenyl)sulfonyl]-piperidin-2-yl]-1-[4-pyridin-4-yl-4-(2-pyrrolidin-1-yl-ethoxy)-piperidin-1-yl]-butan-1-one] | B1R antagonism, human [10 μM] % inhibition [1]: 100%; B1R antagonism, rat [10 μM] % inhibition ([2]; 10 µM): 103%
100 | 102 | COc1cc(C)c(S(=O)(=O)N(CCOCC(=O)N2CCC(OCCN3CCCC3)(c3cccnc3)CC2)Cc2cccnc2)c(C)c1 [Example 5, 4-methoxy-2,6-dimethyl-N-(2-(2-oxo-2-(4-(pyridin-3-yl)-4-(2-(pyrrolidin-1-yl)ethoxy)piperidin-1-yl)ethoxy)ethyl)-N-(pyridin-3-ylmethyl)benzenesulfonamide] | –
97 | 102 | COc1cc(C)c(S(=O)(=O)N2CCCCC2COCC(=O)N2CCC(OCCN3CCN(C)CC3)(c3cccnc3)CC2)c(C)c1 (centres unmarked) [Example 28, 2-((1-(4-methoxy-2,6-dimethylphenylsulfonyl)piperidin-2-yl)methoxy)-1-(4-(2-(4-methylpiperazin-1-yl)ethoxy)-4-(pyridin-3-yl)piperidin-1-yl)ethanone] | –
95 | 101 | O=C(CCCC1CCCCN1S(=O)(=O)c1ccc2ccccc2c1)N1CCC(OCCN2CCCC2)(c2cccnc2)CC1 (centres unmarked) [Example 95, 4-[1-(naphthalen-2-ylsulfonyl)-piperidin-2-yl]-1-[4-pyridin-3-yl-4-(2-pyrrolidin-1-yl-ethoxy)-piperidin-1-yl]-butan-1-one] | –
99 | 100 | COc1cc(C)c(S(=O)(=O)N2c3ccccc3CC[C@H]2COCC(=O)N2CCC(OCCN3CCCC3)(c3cccnc3)CC2)c(C)c1 [Example 1, (S)-2-((1-(4-methoxy-2,6-dimethylphenylsulfonyl)-1,2,3,4-tetrahydroquinolin-2-yl)methoxy)-1-(4-(pyridin-3-yl)-4-(2-(pyrrolidin-1-yl)ethoxy)piperidin-1-yl)ethanone] | –
– | – | O=C(COCC1CCCCN1S(=O)(=O)c1ccccc1C(F)(F)F)N1CCC(OCCN2CCCC2)(c2cccnc2)CC1 (centres unmarked) [Example 117, 1-[4-pyridin-3-yl-4-(2-pyrrolidin-1-yl-ethoxy)-piperidin-1-yl]-2-[[1-[[2-(trifluoromethyl)-phenyl]sulfonyl]-piperidin-2-yl]-methoxy]-ethanone] | B1R antagonism, human [10 μM] % inhibition [1]: 100%; B1R antagonism, rat [10 μM] % inhibition ([2]; 10 µM): 103%
100 | 81 | O=C(COCC1COc2ccccc2N1S(=O)(=O)c1ccccc1C(F)(F)F)N1CCC(OCCN2CCCC2)(c2ccncc2)CC1 (centres unmarked) [Example 112, 1-[4-pyridin-4-yl-4-(2-pyrrolidin-1-yl-ethoxy)-piperidin-1-yl]-2-[[4-[[2-(trifluoromethyl)-phenyl]sulfonyl]-3,4-dihydro-2H-[1,4]benzoxazin-3-yl]-methoxy]-ethanone] | –
99 | 94 | O=C(COCCN(C1CCc2ccccc21)S(=O)(=O)c1ccc(Cl)cc1Cl)N1CCC(OCCN2CCCC2)(c2cccnc2)CC1 (centres unmarked) [Example 7, 2,4-dichloro-N-(2,3-dihydro-1H-inden-1-yl)-N-(2-(2-oxo-2-(4-(pyridin-3-yl)-4-(2-(pyrrolidin-1-yl)ethoxy)piperidin-1-yl)ethoxy)ethyl)benzenesulfonamide] | –
97 | 104 | COc1cc(C)c(S(=O)(=O)N2CCCC[C@H]2COCC(=O)N2CCC(COCCN3CCCC3)(c3cccnc3)CC2)c(C)c1 [Example 49, (S)-2-((1-(4-methoxy-2,6-dimethylphenylsulfonyl)piperidin-2-yl)methoxy)-1-(4-(pyridin-3-yl)-4-((2-(pyrrolidin-1-yl)ethoxy)methyl)piperidin-1-yl)ethanone] | –
83 | 101 | O=C(CC(NS(=O)(=O)c1ccc2ccccc2c1)c1ccccc1)N1CCC(OCCCN2CCCCC2)(c2cccnc2)CC1 (centres unmarked) [Example 27, N-(3-oxo-1-phenyl-3-(4-(3-(piperidin-1-yl)propoxy)-4-(pyridin-3-yl)piperidin-1-yl)propyl)naphthalene-2-sulfonamide] | –
69 | 101 | O=C(COCC1CCc2ccccc2N1S(=O)(=O)c1ccc(Cl)c(Cl)c1)N1CCC(OCCN2CCCC2)(c2cccnc2)CC1 (centres unmarked) [Example 24, 2-((1-(3,4-dichlorophenylsulfonyl)-1,2,3,4-tetrahydroquinolin-2-yl)methoxy)-1-(4-(pyridin-3-yl)-4-(2-(pyrrolidin-1-yl)ethoxy)piperidin-1-yl)ethanone] | –
98 | 103 | COc1cc(C)c(S(=O)(=O)N2CCCCC2COCC(=O)N2CCC(OCCCN3CCN(C)CC3)(c3cccnc3)CC2)c(C)c1 (centres unmarked) [Example 33, 2-((1-(4-methoxy-2,6-dimethylphenylsulfonyl)piperidin-2-yl)methoxy)-1-(4-(3-(4-methylpiperazin-1-yl)propoxy)-4-(pyridin-3-yl)piperidin-1-yl)ethanone] | –

Compound | inhibition at 10 µM [1] [%] | inhibition at 10 µM [2] [%] | other results
COc1cc(C)c(S(=O)(=O)N2CCCCC2CCCC(=O)N2CCC(OCCN3CCCC3)(c3cccnc3)CC2)c(C)c1 (centres unmarked) [Example 87, 4-[1-[(4-methoxy-2,6-dimethyl-phenyl)sulfonyl]-piperidin-2-yl]-1-[4-pyridin-3-yl-4-(2-pyrrolidin-1-yl-ethoxy)-piperidin-1-yl]-butan-1-one] | 100 | 102 | –

Reference: patent publication US8318769B2, “Substituted sulfonamide compounds” (Gruenethal GmbH, priority 2008, dated 2012)
